IC50 data for 19 compounds are collected here from patent US9884063B2, “Amido-substituted azole compounds” (Bayer Pharma Aktiengesellschaft, priority 2014, dated 2018).

One experiment deals with T1, TNKS2 (Homo sapiens, UniProt Q9H2K2).
T1 sequence (Q9H2K2 1-1166): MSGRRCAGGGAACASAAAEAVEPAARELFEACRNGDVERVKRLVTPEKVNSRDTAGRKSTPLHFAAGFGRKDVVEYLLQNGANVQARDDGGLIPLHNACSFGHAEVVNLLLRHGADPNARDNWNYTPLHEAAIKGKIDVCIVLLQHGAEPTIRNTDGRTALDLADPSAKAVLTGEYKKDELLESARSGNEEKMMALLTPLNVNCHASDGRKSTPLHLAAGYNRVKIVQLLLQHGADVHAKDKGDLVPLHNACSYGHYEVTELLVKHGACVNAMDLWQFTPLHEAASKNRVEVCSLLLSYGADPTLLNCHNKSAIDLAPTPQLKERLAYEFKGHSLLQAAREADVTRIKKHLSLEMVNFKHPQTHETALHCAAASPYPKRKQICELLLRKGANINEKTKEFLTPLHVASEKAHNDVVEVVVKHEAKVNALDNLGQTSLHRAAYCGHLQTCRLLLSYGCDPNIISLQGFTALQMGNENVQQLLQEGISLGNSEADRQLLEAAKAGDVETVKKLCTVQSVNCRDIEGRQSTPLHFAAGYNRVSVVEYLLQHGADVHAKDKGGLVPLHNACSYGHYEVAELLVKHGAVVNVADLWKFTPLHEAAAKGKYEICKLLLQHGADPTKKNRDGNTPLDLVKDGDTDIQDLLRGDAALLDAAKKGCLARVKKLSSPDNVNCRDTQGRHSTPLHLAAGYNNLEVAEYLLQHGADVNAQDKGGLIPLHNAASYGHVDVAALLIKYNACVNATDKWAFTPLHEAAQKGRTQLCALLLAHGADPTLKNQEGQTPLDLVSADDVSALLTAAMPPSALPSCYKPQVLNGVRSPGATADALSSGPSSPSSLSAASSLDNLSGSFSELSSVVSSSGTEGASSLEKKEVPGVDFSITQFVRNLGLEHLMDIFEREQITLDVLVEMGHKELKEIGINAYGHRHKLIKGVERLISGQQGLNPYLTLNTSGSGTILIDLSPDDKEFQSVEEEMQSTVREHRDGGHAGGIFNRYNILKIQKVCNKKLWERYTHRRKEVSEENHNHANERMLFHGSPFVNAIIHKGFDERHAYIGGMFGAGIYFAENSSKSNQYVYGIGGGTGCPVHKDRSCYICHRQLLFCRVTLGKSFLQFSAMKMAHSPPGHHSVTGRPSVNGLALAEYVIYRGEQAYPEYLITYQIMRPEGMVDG
Kind of experiment: TNKS2 Assay 1 (TNKS2 Histone Ribosylation Assay Kit, biotin-labeled NAD+). The experiment is classed as biochemical. Particulars: chemiluminescent readout, 384 well. The procedure: The potency of the compounds according to the invention was assessed applying an in vitro inhibition assay. The TNKS2 catalyzed NAD^+-dependent ribosylation of a suitable protein substrate was detected using a commercially available biotin/streptavidin binding based assay format [TNKS2 Histone Ribosylation Assay Kit (Biotin-labeled NAD+), Catalog #80572; BPS Bioscience, San Diego, USA]. Here, the incorporation of a biotin-labeled NAD+ during the TNKS2 catalyzed ribosylation reaction was detected with a streptavidin-HRP coupled chemi-luminescent readout. The intensity of the readout signal is proportional to the incorporated NAD^+. Inhibition of TNKS2 leads to a decreased incorporation of NAD^+ and consequently to a lower readout signal intensity. The concentration of a test compound which inhibits the enzyme activity by 50% (corresponds to half of the normed readout signal intensity) is reported as IC50.
The assay was conducted in a 384 well MTP format according to the manufacturer's protocol [bpsbioscience.com/poly-adp-ribose-polymerase/assay-kit/tnks2-histone-ribosylation-assay-kit-biotin-labeled-nad-80572 referencing: Brown, J. A., Marala, R. B. J. Pharmacol. Toxicol. Methods 2002 47:137-41]. and using a BMG Pherastar MTP reader [BMG-Labtech, Offenburg, Germany].

Experiment [1] has as its system HEK293 FOP control reporter cell line. Kind of experiment: HEK293 FOP Assay (FOP control vector luciferase reporter). The experiment is classed as cell-based. Particulars: Homo sapiens. The essentials: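 Compound series 50 μM to 15 nM, 3.16-fold steps, were diluted in CAFTY buffer (pH 7.4, 2 mM Ca2+, 0.01% BSA) and tested alongside the TOP reporter line. Human Wnt-3a was added at 2500–5 ng/ml in two-fold steps. The control HEK293 line stably holds an FOP vector whose TCF elements are randomized and non-functional.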
Background: Reporter assays use an easily measured gene product as a stand-in for the process of interest.

Setting [2] is: HEK293 FOP control reporter cell line, 16 hours incubation, compound dilution series 50 μM to 15 nM.
The mark [3] stands for this setting: HEK293 FOP control reporter cells, 16 hours, luciferase, dilution series from 50 μM.

Bounds are passed on as bounds.

On to `CC(C)NC(=O)c1nc[nH]c1C(=O)Nc1ccc(NC(=O)c2ccc(F)cc2Cl)cc1` [Example 10, N^5-{4-[(2-chloro-4-fluorobenzoyl)amino]phenyl}-N^4-isopropyl-1H-imidazole-4,5-dicarboxamide], for which the half-inhibitory concentration (IC50) (as a rule, the concentration that gives 50% inhibition) against TNKS2 (Table 2) was 0.23 µM; on TNKS2 (first table) it was 0.23 µM; in experiment [1] (setting [2]), 46 µM; in experiment [1] (setting [3]), ≥ 50 µM.
Turning to `O=C(Nc1ccc(NC(=O)c2[nH]cnc2C(=O)NCC(F)(F)F)cc1)c1ccc(F)cc1Cl` [Example 30, N^4-{4-[(2-chloro-4-fluorobenzoyl)amino]phenyl}-N^5-(2,2,2-trifluoroethyl)-1H-imidazole-4,5-dicarboxamide], the 50% inhibitory concentration (IC50) on TNKS2 (Table 2) turned out to be 0.07 µM; on TNKS2 (first table), 0.07 µM; in experiment [1] (setting [3]), 37.5 µM.
As for `CC(C)NC(=O)c1ncoc1C(=O)Nc1ccc(NC(=O)c2ccc(F)cc2Cl)cc1` [Example 15, N^5-{4-[(2-chloro-4-fluorobenzoyl)amino]phenyl}-N^4-isopropyl-1,3-oxazole-4,5-dicarboxamide], the results for the half-maximal inhibitory concentration (IC50) (on TNKS2 (Table 2); on TNKS2 (first table); in experiment [1] (setting [3])) were 1.1 µM, 1.14 µM and ≥ 50 µM, respectively.
As to `CNC(=O)c1nc[nH]c1C(=O)Nc1ccc(NC(=O)c2ccc(Cl)cc2Cl)cc1` [Example 9, N^5-{4-[(2,4-dichlorobenzoyl)amino]phenyl}-N^4-methyl-1H-imidazole-4,5-dicarboxamide], the concentration for half-maximal inhibition (IC50) at TNKS2 (Table 2) is 0.03 µM; at TNKS2 (first table) it was 0.02 µM; in experiment [1] (setting [2]), 31.5 µM; in experiment [1] (setting [3]), 40 µM.
On the same counts, the results for `CCC(C)NC(=O)c1ncoc1C(=O)Nc1ccc(NC(=O)c2ccc(F)cc2Cl)cc1` (stereo not drawn) [Example 7, N^4-sec-butyl-N^5-{4-[(2-chloro-4-fluorobenzoyl)amino]phenyl}-1,3-oxazole-4,5-dicarboxamide] are 19 µM, 19.1 µM, 45 µM and 45 µM.
In the case of `CNC(=O)c1nc[nH]c1C(=O)Nc1ccc(NC(=O)c2ccc(F)cc2Cl)nc1` [Example 16, N^5-{6-[(2-chloro-4-fluorobenzoyl)amino]pyridin-3-yl}-N^4-methyl-1H-imidazole-4,5-dicarboxamide], the 50% inhibitory concentration (IC50) at TNKS2 (Table 2) was 0.04 µM; against TNKS2 (first table), 0.04 µM; in experiment [1] (setting [3]) it was ≥ 50 µM.
In the case of `CNC(=O)c1nc[nH]c1C(=O)Nc1ccc(NC(=O)c2ccc(OCCN3CCN(C)CC3)cc2Cl)cc1` [Example 28, N^5-[4-({2-chloro-4-[2-(4-methylpiperazin-1-yl)ethoxy]benzoyl}amino)phenyl]-N^4-methyl-1H-imidazole-4,5-dicarboxamide], the concentration for half-maximal inhibition (IC50) worked out at 0.06 µM at TNKS2 (Table 2), 0.06 µM against TNKS2 (first table), 36 µM in experiment [1] (setting [2]) and 42 µM in experiment [1] (setting [3]).
On to `CNC(=O)c1nc[nH]c1C(=O)Nc1ccc(NC(=O)c2c(Cl)cccc2Cl)cc1` [Example 26, N^5-{4-[(2,6-dichlorobenzoyl)amino]phenyl}-N^4-methyl-1H-imidazole-4,5-dicarboxamide], for which the IC50 against TNKS2 (Table 2) was 0.16 µM; on TNKS2 (first table), 0.16 µM; in experiment [1] (setting [3]), ≥ 50 µM.
As for `CNC(=O)c1nc[nH]c1C(=O)Nc1ccc(NC(=O)c2ccc(F)cc2)cc1` [Example 20, N^5-{4-[(4-fluorobenzoyl)amino]phenyl}-N^4-methyl-1H-imidazole-4,5-dicarboxamide], the IC50 at TNKS2 (Table 2) stood at 1.7 µM; at TNKS2 (first table), 1.7 µM; in experiment [1] (setting [2]) it was 40.5 µM; in experiment [1] (setting [3]) it was 31 µM.
For `CNC(=O)c1nc[nH]c1C(=O)Nc1ccc(NC(=O)c2c(-c3ccccc3)nn(C)c2Cl)cc1` [Example 17, N^5-(4-{[(5-chloro-1-methyl-3-phenyl-1H-pyrazol-4-yl)carbonyl]amino}phenyl)-N^4-methyl-1H-imidazole-4,5-dicarboxamide], the half-inhibitory concentration (IC50) at TNKS2 (Table 2) turned out to be 2.2 µM; on TNKS2 (first table) it was 2.2 µM; in experiment [1] (setting [2]), 26 µM; in experiment [1] (setting [3]), 26 µM.
With `COC(=O)c1ncoc1C(=O)Nc1ccc(NC(=O)c2ccc(F)cc2Cl)cc1` [Example 14, Methyl 5-({4-[(2-chloro-4-fluorobenzoyl)amino]phenyl}carbamoyl)-1,3-oxazole-4-carboxylate], the IC50 against TNKS2 (Table 2) is 0.3 µM; against TNKS2 (first table), 0.3 µM; in experiment [1] (setting [3]) it was ≥ 50 µM.
For the compound `CNC(=O)c1[nH]cnc1C(=O)Nc1ccc(NC(=O)c2cc(Cl)sc2Cl)cc1` [Example 213, N^4-(4-{[(2,5-dichloro-3-thienyl)carbonyl]amino}phenyl)-N^5-methyl-1H-imidazole-4,5-dicarboxamide], the results for the concentration for half-maximal inhibition (IC50) (at TNKS2 (Table 2); in experiment [1] (setting [2])) were > 100 µM and 8.4 µM, respectively.
Consider `CNC(=O)c1nc[nH]c1C(=O)Nc1ccc(NC(=O)c2c(C)cc(F)cc2C)cc1` [Example 23, N^5-{4-[(4-fluoro-2,6-dimethylbenzoyl)amino]phenyl}-N^4-methyl-1H-imidazole-4,5-dicarboxamide], for which the IC50 was 0.34 µM against TNKS2 (Table 2), 0.34 µM against TNKS2 (first table) and ≥ 50 µM in experiment [1] (setting [3]).
`CNC(=O)c1nc[nH]c1C(=O)Nc1ccc(NC(=O)c2ccccc2C)cc1` [Example 19, N^4-methyl-N^5-{4-[(2-methylbenzoyl)amino]phenyl}-1H-imidazole-4,5-dicarboxamide]: the half-maximal inhibitory concentration (IC50) at TNKS2 (Table 2) was found to be 0.29 µM; at TNKS2 (first table), 0.29 µM; in experiment [1] (setting [2]), 26.5 µM; in experiment [1] (setting [3]), 11 µM.
In the case of `CNC(=O)c1nc[nH]c1C(=O)Nc1ccc(NC(=O)c2ccncc2Cl)cc1` [Example 6, N^5-{4-[(3-chloroisonicotinoyl)amino]phenyl}-N^4-methyl-1H-imidazole-4,5-dicarboxamide], the IC50 at TNKS2 (Table 2) is 0.05 µM; against TNKS2 (first table), 0.05 µM; in experiment [1] (setting [3]), ≥ 50 µM.
Turning to `CC(NC(=O)c1ncoc1C(=O)Nc1ccc(NC(=O)c2ccc(F)cc2Cl)cc1)c1ccccc1` (stereo not drawn) [Example 8, N^5-{4-[(2-chloro-4-fluorobenzoyl)amino]phenyl}-N^4-(1-phenylethyl)-1,3-oxazole-4,5-dicarboxamide], the values for the IC50 (against TNKS2 (Table 2); against TNKS2 (first table); in experiment [1] (setting [3])) were 7 µM, 7 µM and ≥ 50 µM, respectively.
For `CN(C)C(=O)c1nc[nH]c1C(=O)Nc1ccc(NC(=O)c2ccc(F)cc2Cl)cc1` [Example 24, N^5-{4-[(2-chloro-4-fluorobenzoyl)amino]phenyl}-N^4,N^4-dimethyl-1H-imidazole-4,5-dicarboxamide], the IC50 is 0.5 µM at TNKS2 (Table 2), 0.5 µM on TNKS2 (first table) and ≥ 50 µM in experiment [1] (setting [3]).
As to `O=C(Nc1ccc(NC(=O)c2[nH]cnc2C(=O)NCc2ccccc2)cc1)c1ccc(F)cc1Cl` [Example 18, N^4-benzyl-N^5-{4-[(2-chloro-4-fluorobenzoyl)amino]phenyl}-1H-imidazole-4,5-dicarboxamide], the IC50 on TNKS2 (Table 2) was 0.85 µM; on TNKS2 (first table), 0.85 µM; in experiment [1] (setting [3]) it was ≥ 50 µM.
Take `CNC(=O)c1nc[nH]c1C(=O)Nc1ccc(NC(=O)c2ccc(F)cc2Cl)cc1` [Example 12, N^5-{4-[(2-chloro-4-fluorobenzoyl)amino]phenyl}-N^4-methyl-1H-imidazole-4,5-dicarboxamide]: the values for the half-inhibitory concentration (IC50) (on TNKS2 (Table 2); on TNKS2 (first table); in experiment [1] (setting [3])) were 0.02 µM, 0.02 µM and ≥ 50 µM, respectively.
